Laboratory results as given in patent US5968791A, “Plant lysophosphatidic acid acyltransferases” (Calgene, Inc., priority 1995, dated 1999).

Target: T1, coconut LPAAT (Cocos nucifera, UniProt Q42670)
T1 sequence (Q42670 1-308): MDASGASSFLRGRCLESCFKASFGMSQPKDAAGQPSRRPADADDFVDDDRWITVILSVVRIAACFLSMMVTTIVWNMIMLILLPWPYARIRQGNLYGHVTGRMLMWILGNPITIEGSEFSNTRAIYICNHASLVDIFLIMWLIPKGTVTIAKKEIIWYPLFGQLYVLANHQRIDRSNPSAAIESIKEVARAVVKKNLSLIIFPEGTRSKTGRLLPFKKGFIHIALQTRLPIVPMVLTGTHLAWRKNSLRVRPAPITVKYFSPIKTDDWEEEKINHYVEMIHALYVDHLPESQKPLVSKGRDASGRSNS
Test: LPAAT activity assay, coconut P2 membrane preparation
Assay type: biochemical
Set-up: white endosperm tissue lining the inside of the endocarp can be dissected and collected; from tissue; host or cells: immature coconut endosperm, P2 membrane fraction
Conditions: P2 membrane preparation; acyl-CoA donor varied, acceptor 12:0-LPA
Description: To assay for LPAAT activity, the sample is incubated with lysophosphatidic acid (LPA) and acyl-coenzyme A (acyl-CoA) substrates in buffered solution. The acyl substituents of the two substrates are chosen to correspond with the specificity of the enzyme being measured. For example, to measure activity of an LPAAT having preference for medium-chain substrates, lauroyl-LPA (lauroyl-lysophosphatidic acid) and lauroyl-CoA may be used, to measure activity of an LPAAT preferring longer-chain acyl groups, oleoyl-LPA and oleoyl-CoA may be used, to measure activity of an LPAAT preferring very-long chain substrate, erucyl-LPA and erucyl-CoA may be used, and so on, depending upon the type of LPAAT to be tested. The acyl group of one substrate is radioactively labeled in order to detect the product formed. In the examples which follow the acyl substituent of the acyl-CoA substrate is radiolabeled with ^14 C in the carboxyl group. LPAAT activity results in transfer of this acyl group from the acyl-CoA "donor" substrate to the LPA "acceptor" substrate, converting the latter into the product, phosphatidic acid (PA). LPAAT activity is measured as the amount of radioactive product formed in a given assay time. The PA product is radioactive as a result of the transferred radiolabeled acyl group at the central carbon atom of the molecule, and the quantity of PA formed may be determined by measuring radioactivity of the PA fraction. For this measurement, the PA is first separated from the acyl-CoA substrate by solvent partitioning, or by thin-layer chromatography (TLC).
20 μl of the sample to be assayed for LPAAT activity is mixed with 217.5 μl of an assay ingredient mixture in a 4-ml, screw-cap vial. […] The incubation takes place in a water bath at 30° C., for 20-30 minutes.
To stop the assay, 0.25 ml of 1M KCl in 0.2M H3 PO4 is added to the vial. At this point, 40 μl BSA (bovine serum albumin, fraction V) at 1 mg/ml are added, followed by 0.75 ml of a solution of 67 μg/ml unlabeled PA (acting as a "carrier" to facilitate partitioning) in chloroform/methanol (2:1, v/v). The chain lengths of the PA acyl groups are chosen to correspond to those used in the assay substrates. Upon thorough mixing of these components the radiolabeled PA product of the LPAAT reaction partitions into the organic phase and away from the unreacted acyl-CoA and LPA. The vial is centrifuged briefly at low speed to facilitate the separation of organic (lower) and aqueous (upper) phases. The aqueous phase is then removed and discarded. The total radioactivity extracted into the organic phase is determined by liquid scintillation counting; a 100 μl sample of the organic phase is transferred to a 20 ml scintillation vial and allowed to dry, and scintillation fluid (3-5 ml) is added to the vial. The radioactivity of the sample, after subtraction of the "minus-enzyme" or "minus-LPA" radioactivities, is taken as an approximate indication of the amount of PA formed in the LPAAT-catalyzed reaction and therefore of LPAAT activity.
A more accurate estimation of the LPAAT activity may be obtained by separating the PA product from these contaminants by TLC. The remaining organic phase is applied to a silica TLC plate. Ascending chromatography is carried out for 50 minutes, using the solvent mixture chloroform/pyridine/88% formic acid (50:30:7, v/v). After the plate has dried, the distribution of radioactivity is visualized and quantitated using an AMBIS radioanalytic imaging system (AMBIS Systems Inc., San Diego, Calif.). From prior application of standard lipid components the Rf of the PA is known. The radioactivity associated with the PA spot is expressed as a percentage of the total radioactivity of the assay sample loaded on the plate. This ratio provides an indication of the proportion of the scintillation counts which represent the PA product, and may be used to correct the counts to obtain the total PA radioactivity formed in the assay. […]

SMILES | LPAAT Activity from Coconut
CCCCCCCC/C=C\CCCCCCCC(=O)SCCNC(=O)CCNC(=O)[C@H](O)C(C)(C)COP(=O)(O)OP(=O)(O)OC[C@H]1O[C@@H](n2cnc3c(N)ncnc32)[C@H](O)[C@@H]1OP(=O)(O)O [18:1, oleoyl-CoA] | 9 pmol PA formed/30 min assay
CCCCCCCC(=O)SCCNC(=O)CCNC(=O)[C@H](O)C(C)(C)COP(=O)(O)OP(=O)(O)OC[C@H]1O[C@@H](n2cnc3c(N)ncnc32)[C@H](O)[C@@H]1OP(=O)(O)O [8:0] | 6 pmol PA formed/30 min assay
CCCCCCCCCCCC(=O)SCCNC(=O)CCNC(=O)[C@H](O)C(C)(C)COP(=O)(O)OP(=O)(O)OC[C@H]1O[C@@H](n2cnc3c(N)ncnc32)[C@H](O)[C@@H]1OP(=O)(O)O [12:0, lauroyl-CoA] | 238 pmol PA formed/30 min assay
CCCCCCCCCC(=O)SCCNC(=O)CCNC(=O)[C@H](O)C(C)(C)COP(=O)(O)OP(=O)(O)OC[C@H]1O[C@@H](n2cnc3c(N)ncnc32)[C@H](O)[C@@H]1OP(=O)(O)O [10:0] | 43 pmol PA formed/30 min assay
CCCCCCCCCCCCCCCC(=O)SCCNC(=O)CCNC(=O)[C@H](O)C(C)(C)COP(=O)(O)OP(=O)(O)OC[C@H]1O[C@@H](n2cnc3c(N)ncnc32)[C@H](O)[C@@H]1OP(=O)(O)O [16:0] | 21 pmol PA formed/30 min assay
CCCCCCCCCCCCCC(=O)SCCNC(=O)CCNC(=O)[C@H](O)C(C)(C)COP(=O)(O)OP(=O)(O)OC[C@H]1O[C@@H](n2cnc3c(N)ncnc32)[C@H](O)[C@@H]1OP(=O)(O)O [14:0] | 61 pmol PA formed/30 min assay
